Test results published in patent US20050164210A1, “Regulated polymerase III expression systems and related methods” (priority 2004, published 2005).

Tested on: VgEcR and RXR
Test: murA induction of the E/GRE/Hsmin promoter: GFP+ cells by fluorescent microscopy and FACS, Western blot of GAL4-Oct-2Q(Q→A) and EGFP
Assay type: cell-based
Settings: 72 h
Procedure: High titer virus were produced by calcium phosphate transfection of retroviral DNA constructs into the LinX amphotrophic retroviral packaging cell line (17) followed by incubation with dexamethasone/butyrate (1 μM/ml) of packagers at 32° C. for 3 days. Infections were carried out by harvesting supernatants from LinX packagers, filtered through a […] membrane (Millipore), followed by the addition of polybrene (8 μM) to supernatants, finally overlaying onto actively dividing host cells (70% confluent). Cells were gently spun at room temperature for 30 min, incubated at 32° C. for 6 h. […]
Western blot analysis and antibodies. […] Signal intensities were determined after background corrections by using Alpha-Imager 2000 Documentation and Analysis Software (Alpha Innotech, San Leandro, Calif.). The percentage reduction in band intensity for each concentration of murA was calculated relative to the uninduced samples and normalized against β-tubulin.
The ecdysone inducible system is comprised of three Moloney murine leukemia virus (MoMLV)-based retroviral vectors, the two vectors expressing nuclear receptors/transcription factors VgEcR and RXR, and a third construct, pEind-RNAi expressing a chimeric transactivator GAL4-Oct-2^Q(Q→A), and an internal ribosomal entry site (IRES) linked enhanced green fluorescence protein (EGFP) under an inducible promoter E/GRE/Hsmin (FIG. 1A). […]

SMILES: CC(C)CC[C@@H](O)[C@](C)(O)[C@H]1CC[C@@]2(O)C3=CC(=O)[C@]4(O)C[C@@H](O)[C@@H](O)C[C@]4(C)[C@H]3[C@H](O)C[C@]12C [murA, muristerone A]
- Levels of GAL4-Oct-2Q(Q→A) and EGFP protein (Western blot) (5 μM murA, versus untreated controls): increased levels
- GFP+ cells following induction with murA (sorted stable cells, 0.5 μM murA (microscopy), 5 μM murA (FACS)): > 95%
